From BindingDB's records for doi:10.1016/s0960-894x(00)00604-1 (Merck Research Laboratories, 2001) come the findings set out here.

By IC50 is commonly meant the concentration that gives 50% inhibition. High values mean lower potency, low ones higher potency.

The target in the assay is Histone deacetylase (Eimeria tenella). Nature of the assay: Inhibitory activity against histone deacetylase (HDAC) from partially purified extracts of Eimeria tenella protozoal cells.
Take `CC[C@H](C)[C@@H]1NC(=O)[C@H](Cc2cn(OC)c3ccccc23)NC(=O)[C@H](CCCCCC(=O)O)NC(=O)[C@H]2CCCCN2CC1=O`: the midpoint of inhibition, the IC50, lay at 30 nM.

In the case of `CCC(=O)CCCCC[C@@H]1NC(=O)[C@H]2CCCCN2CC(=O)[C@H]([C@@H](C)CC)NC(=S)[C@H](Cc2cn(OC)c3ccccc23)NC1=O`, the IC50 was found to be 210 nM. This IC50 is about 7-fold higher than that of the molecule before.

The molecule `CC[C@H](C)[C@@H]1NC(=O)[C@H](Cc2cn(OC)c3ccccc23)NC(=O)[C@H](CCCCCC(=O)C(C)O)NC(=O)[C@H]2CCCCN2CC1=O` (some centres not stated) came in with a half-inhibitory concentration (IC50) of 4 nM. In the case of `CC[C@H](C)[C@@H]1NC(=O)[C@H](Cc2cn(OC)c3ccccc23)NC(=O)[C@H](CCCCCP(=O)(OC)OC)NC(=O)[C@H]2CCCCN2CC1=O`, 850 nM corresponded to half-maximal inhibition (IC50). The molecule `CCCCCCCC[C@@H]1NC(=O)[C@H]2CCCCN2CC(=O)[C@H]([C@@H](C)CC)NC(=O)[C@H](Cc2cn(OC)c3ccccc23)NC1=O` returned a 50% inhibitory concentration (IC50) of 300 nM. The same measure for `CC[C@H](C)[C@@H]1NC(=O)[C@H](Cc2cn(OC)c3ccccc23)NC(=O)[C@H](CCCCCC(=O)C2CO2)NC(=O)[C@H]2CCCCN2CC1=O` (some centres not stated): 1 nM.

In turn, `CC[C@H](C)[C@@H]1NC(=O)[C@H](Cc2cn(OC)c3ccccc23)NC(=O)[C@H](CCCCCC(=O)OC)NC(=O)[C@H]2CCCCN2CC1=O` gave an IC50 of 0.8 nM.
